Assay results published in patent US20010019728A1 (priority 1997, published 2001).
“And” between values parts separate entries of the source, which are not always exact repeats. Equal entries are not always repeated.

Assays:
Conditions in all cases: in vivo
Nonparasitic nematodes = tested on: Nonparasitic nematodes
Fusarium oxysporum = tested on: Fusarium oxysporum
Xiphinema index = tested on: Xiphinema index
Xiphinema americanum = tested on: Xiphinema americanum
Tylenchorhynchus spp. = tested on: Tylenchorhynchus spp.
[1] = tested on: total plant-parasitic nematode population
[2] = tested on: dagger nematode (Xiphinema index+Xiphinema americanum)

CNC(=S)[S-].[Na+] [Metham Sodium 1X, Metham sodium]
Nonparasitic nematodes (Nonparasitic nematodes): 944a Nematodes/250 cc soil and 651d Nematodes/250 cc soil

CI [Methyl Iodide 0.5X, Methyl iodide]
Fusarium oxysporum (Fusarium oxysporum): 3.79a Log (cfu/g soil) and 3.44a Log (cfu/g soil)

C#CCBr [Propargyl Bromide, Propargyl bromide]
Nonparasitic nematodes (Nonparasitic nematodes): 1,304a Nematodes/250 cc soil and 1,600cd Nematodes/250 cc soil | Fusarium oxysporum (Fusarium oxysporum): 1.26d Log (cfu/g soil) and 1.10cd Log (cfu/g soil)

CCOP(=O)(NC(C)C)Oc1ccc(SC)c(C)c1 (stereo not shown) [FENAMIPHOS®, FENAMIPHOS]
Plant-parasitic Nematode Population: Xiphinema index (Xiphinema index): 30.00a per 250 cc soil | population increase in the soil Xiphinema index populations relative to the untreated control (Xiphinema index): 30% | reduction of Xiphinema index populations (Xiphinema index): 84% | Plant-parasitic Nematode Population: Xiphinema americanum (Xiphinema americanum): 10.00a per 250 cc soil and 9.00a per 250 cc soil and 5.40a per 250 cc soil | decrease in the Xiphinema americanum populations relative to the untreated control (Xiphinema americanum): no effect | decrease of the Xiphinema americanum population relative to T5 (Xiphinema americanum): not controlled | Plant-parasitic Nematode Population: Tylenchorhynchus spp. (Tylenchorhynchus spp.): 0.00a per 250 cc soil | Plant-parasitic Nematode Population: Total [1]: 80.00a per 250 cc soil and 94.00a per 250 cc soil and 105.80a per 250 cc soil | decrease in overall total plant-parasitic nematode population relative to the untreated control [1]: 30% and 31% | decrease in overall total plant-parasitic nematodes populations relative to the untreated control [1]: 51% | reduction in group nematode population without considering the Helicotylenchus nematode species [1]: 12% | reduction in the dagger nematode (Xiphinema index+Xiphinema americanum) populations relative to T5 [2]: 73%
